Measured values taken from ChEMBL document CHEMBL4699496, “Exploring efficacy of natural-derived acetylphenol scaffold inhibitors for α-glucosidase: Synthesis, in vitro and in vivo biochemical studies” (Bioorg Med Chem Lett, 2020).
Active and inactive are the calls of the source. The calls are words filed in the database; no cut-off is given here.

Assays:
[1] = Inhibition of alpha-glucosidase (unknown origin); design: species or system Homo sapiens
Homo sapiens [2] = species on record: Homo sapiens; test: Binding affinity to alpha-glucosidase (unknown origin) assessed as change in gibbs free energy at 298 K by Van't Hoff equation analysis
Homo sapiens [3] = species on record: Homo sapiens; test: Binding affinity to alpha-glucosidase (unknown origin) assessed as destabilization of enzyme conformation by measuring induction of protein aggregation at 2.5 uM by atomic force microscopy
Homo sapiens [4] = species on record: Homo sapiens; test: Binding affinity to alpha-glucosidase (unknown origin) assessed as change in the microenvironment of tryptophan residue by measuring blue shift at 0.16 to 1.66 uM by fluorescence based Synchronous fluorescence spectroscopy; details: dose microM 0.16-1.66
Rattus norvegicus [5] = species on record: Rattus norvegicus; test: Inhibition of alpha-glucosidase in rat everted intestinal sleeves assessed as reduction in blood glucose AUC (0-90) outside of the intestinal sleeves at 0.173 mM; type: tissue-based; details: Intestine, time min 0-90
Rattus norvegicus [6] = species on record: Rattus norvegicus; test: Inhibition of alpha-glucosidase in rat everted intestinal sleeves assessed as reduction in blood glucose AUC (0-90) within intestinal sleeves at 0.173 mM; type: tissue-based; details: Intestine, time min 0-90
Mus musculus [7] = species on record: Mus musculus; test: Hypoglycemic activity in Kunming mouse assessed as reduction in maltose-induced postprandial blood glucose level measured after 15 to 120 mins by maltose loading test; type: functional, organism-based; details: time min 15-120
Homo sapiens [8] = species on record: Homo sapiens; test: Binding affinity to alpha-glucosidase (unknown origin) assessed as quenching constant at 310 K
Homo sapiens [9] = species on record: Homo sapiens; test: Binding affinity to alpha-glucosidase (unknown origin) assessed as enzyme complexation with compound by measuring mean height of enzyme at 2.5 uM by atomic force microscopy (reference value: 0.87 nm)
Homo sapiens [10] = species on record: Homo sapiens; test: Binding affinity to alpha-glucosidase (unknown origin) assessed as Stern-Volmer quenching constant at 298 K
Homo sapiens [11] = species on record: Homo sapiens; test: Binding affinity to alpha-glucosidase (unknown origin) assessed as quenching constant at 298 K
Homo sapiens [12] = species on record: Homo sapiens; test: Binding affinity to alpha-glucosidase (unknown origin) assessed as hydrophobic interactions by measuring change in enthalpy at 304 K by Van't Hoff equation analysis
Homo sapiens [13] = species on record: Homo sapiens; test: Binding affinity to alpha-glucosidase (unknown origin) assessed as hydrogen bonding interactions by measuring change in entropy at 304 K by Van't Hoff equation analysis
Homo sapiens [14] = species on record: Homo sapiens; test: Binding affinity to alpha-glucosidase (unknown origin) assessed as binding constant at 304 K
Homo sapiens [15] = species on record: Homo sapiens; test: Binding affinity to alpha-glucosidase (unknown origin) assessed as Stern-Volmer quenching constant at 310 K
Homo sapiens [16] = species on record: Homo sapiens; test: Binding affinity to alpha-glucosidase (unknown origin) assessed as decrease in fluorescence intensity at 0.16-1.66 uM by fluorescence based Synchronous fluorescence spectroscopy; details: dose microM 0.16-1.66
Rattus norvegicus [17] = species on record: Rattus norvegicus; test: Inhibition of alpha-glucosidase in rat everted intestinal sleeves assessed as reduction in glucose concentration within intestinal sleeves at 0.173 mM measured for 5 to 90 mins; type: tissue-based; details: Intestine, time min 5-90
Homo sapiens [18] = species on record: Homo sapiens; test: Binding affinity to alpha-glucosidase (unknown origin) assessed as change in gibbs free energy at 310 K by Van't Hoff equation analysis
Homo sapiens [19] = species on record: Homo sapiens; test: Binding affinity to alpha-glucosidase (unknown origin) assessed as binding constant at 310 K
Homo sapiens [20] = species on record: Homo sapiens; test: Binding affinity to alpha-glucosidase (unknown origin) assessed as Stern-Volmer quenching constant at 304 K
Homo sapiens [21] = species on record: Homo sapiens; test: Binding affinity to alpha-glucosidase (unknown origin) assessed as binding constant at 298 K
[22] = Binding affinity to alpha-glcosidase (unknown origin) using p-NPG as substrate; design: species or system Homo sapiens
Homo sapiens [23] = species on record: Homo sapiens; test: Binding affinity to alpha-glucosidase (unknown origin) assessed as fluorescence quenching at 0.16 to 1.83 uM by fluorescence spectral analysis; details: dose microM 0.16-1.83
Homo sapiens [24] = species on record: Homo sapiens; test: Binding affinity to alpha-glucosidase (unknown origin) assessed as enzyme complexation with compound at 2.5 uM by measuring mean width of enzyme by atomic force microscopy (reference value: 28.35 nm)
Homo sapiens [25] = species on record: Homo sapiens; test: Binding affinity to alpha-glucosidase (unknown origin) assessed as decrease in fluorescence intensity of Tyr residue without shift in maximum emission wavelength at 0.16 to 1.66 uM by fluorescence based Synchronous fluorescence spectroscopy; details: dose microM 0.16-1.66
Homo sapiens [26] = species on record: Homo sapiens; test: Non-competitive inhibition of alpha-glucosidase (unknown origin) assessed as decrease in Vmax with constant Km at 0.0 to 0.92 uM using p-NPG as substrate by Lineweaver-Burk plot analysis; details: dose microM 0.0-0.92
Rattus norvegicus [27] = species on record: Rattus norvegicus; test: Inhibition of alpha-glucosidase in rat everted intestinal sleeves assessed as reduction in glucose concentration outside of the intestinal sleeves at 0.173 mM measured after 5 to 90 mins; type: tissue-based; details: Intestine, time min 5-90
Homo sapiens [28] = species on record: Homo sapiens; test: Binding affinity to alpha-glucosidase (unknown origin) assessed as change in gibbs free energy at 304 K by Van't Hoff equation analysis
Homo sapiens [29] = species on record: Homo sapiens; test: Binding affinity to alpha-glucosidase (unknown origin) assessed as change in the microenvironment of tyrosine residue by measuring red shift at 0.16 to 1.66 uM by fluorescence based Synchronous fluorescence spectroscopy; details: dose microM 0.16-1.66
Homo sapiens [30] = species on record: Homo sapiens; test: Binding affinity to alpha-glucosidase (unknown origin) assessed as quenching constant at 304 K
Mus musculus [31] = species on record: Mus musculus; test: Hypoglycemic activity in Kunming mouse assessed as reduction in maltose-induced blood glucose AUC (0 to 120 mins) by maltose loading test; type: functional, organism-based; details: time min 0-120

CC(=O)Oc1cc(O)c(C(=O)C(C)C)cc1Br
IC50 [1]: Not Active

Cc1cc(C(=O)C(C)C)c(O)c(Br)c1O
IC50 ([1]; read-out: IC50): 21 µM

CCCC(=O)Oc1cc(O)c(C(=O)C(C)C)cc1C
IC50 ([1]; read-out: IC50): 43.2 µM

Cc1cc(C(=O)C(C)C)c(O)c(Br)c1OC(=O)C(C)(C)C
IC50 ([1]; read-out: IC50): 1.86 µM

Cc1cc(C(=O)C(C)C)c(O)cc1OC(=O)c1ccccc1
IC50 ([1]; read-out: IC50): 14.6 µM

CCCCC(=O)c1ccc(O)cc1O
IC50 [1]: Not Active

CCCCCCC(=O)Oc1cc(O)c(C(=O)C(C)C)cc1C
IC50 ([1]; read-out: IC50): 5.93 µM

CC(C)C(=O)c1cc(Br)c(OC(=O)CI)cc1O
IC50 ([1]; read-out: IC50): 11.3 µM

CC(=O)Oc1cc(O)c(C(=O)C(C)C)cc1C
IC50 [1]: Not Active

Cc1cc(C(=O)C(C)C)c(O)c(Br)c1OC(=O)c1ccc(F)cc1
IC50 ([1]; read-out: IC50): 15.7 µM

Cc1cc(C(=O)C(C)C)c(O)cc1OC(=O)CBr
IC50 ([1]; read-out: IC50): 14.9 µM

CC(=O)Oc1c(C)cc(C(=O)C(C)C)c(O)c1Br
IC50 ([1]; read-out: IC50): 121 µM

CCCCCCCC(=O)c1cc(C)c(O)cc1O
IC50 ([1]; read-out: IC50): 35.6 µM

Cc1cc(C(=O)C(C)C)c(O)cc1OC(=O)Cc1ccccc1
IC50 ([1]; read-out: IC50): 25.4 µM

CCCCCCC(=O)c1ccc(O)cc1O
IC50 ([1]; read-out: IC50): 81.9 µM

CC(C)C(=O)Oc1ccc(C(=O)C(C)C)c(O)c1
IC50 ([1]; read-out: IC50): 72.5 µM

CCCCC(=O)c1cc(C)c(OC(=O)CI)cc1O
IC50 ([1]; read-out: IC50): 5.58 µM

CCCCCC(=O)c1cc(C)c(OC(=O)CI)cc1O
IC50 ([1]; read-out: IC50): 3.9 µM

Cc1cc(C(=O)C(C)C)c(O)cc1OC(=O)CI
IC50 ([1]; read-out: IC50): 4.27 µM

CCC(=O)c1cc(C)c(O)cc1O
IC50 [1]: Not Active

CCC(=O)c1cc(C)c(OC(=O)CI)cc1O
IC50 ([1]; read-out: IC50): 6.22 µM

Cc1cc(C(=O)C(C)C)c(O)cc1OC(=O)c1cccc(Cl)c1
IC50 ([1]; read-out: IC50): 28.1 µM

CCCCCC(=O)c1ccc(O)cc1O
IC50 ([1]; read-out: IC50): 107 µM

Cc1cc(C(=O)C(C)C)c(O)c(Br)c1OC(=O)CBr
IC50 ([1]; read-out: IC50): 11.9 µM

Cc1cc(C(=O)C(C)C)c(O)cc1OC(=O)c1ccc(Cl)cc1
IC50 ([1]; read-out: IC50): 10.9 µM

Cc1cc(C(=O)C(C)C)c(O)cc1O
IC50 ([1]; read-out: IC50): 23.7 µM

Cc1cc(C(=O)C(C)C)c(O)c(Br)c1OC(=O)c1ccc(I)cc1
IC50 ([1]; read-out: IC50): 25.4 µM

Cc1cc(C(=O)C(C)C)c(O)cc1OC(=O)CCl
IC50 ([1]; read-out: IC50): 140 µM

CC(C)C(=O)c1ccc(OC(=O)CI)cc1O
IC50 ([1]; read-out: IC50): 14.4 µM

CC(C)C(=O)c1ccc(OC(=O)CBr)cc1O
IC50 ([1]; read-out: IC50): 35.8 µM

CCC(=O)c1ccc(O)cc1O
IC50 [1]: Not Active

CCCCCCC(=O)c1cc(C)c(OC(=O)CI)cc1O
IC50 ([1]; read-out: IC50): 1.77 µM

CCCCC(=O)c1ccc(OC(=O)CI)cc1O
IC50 [1]: Not Active

Cc1cc(C(=O)C(C)C)c(O)c(Br)c1OC(=O)CI
deltaG (Homo sapiens [2]): -8.73 kcal/mol
Activity (Homo sapiens [3]): Active
Activity (Homo sapiens [4]): Active
inhibition (Rattus norvegicus [5]): Active
inhibition (Rattus norvegicus [6]): Active
Activity (Mus musculus [7]): Dose-dependent effect
Kq (Homo sapiens [8]): 2.24 10^12L/mol/s
Activity (Homo sapiens [9]): 3.97 nm
KSV (Homo sapiens [10]): 2.98 10^4L/mol
Kq (Homo sapiens [11]): 2.98 10^12L/mol/s
deltaH (Homo sapiens [12]): -4.67 kcal/mol
deltaS (Homo sapiens [13]): 57 J/mol/K
Ka (Homo sapiens [14]): 1.45 10^4L/mol
KSV (Homo sapiens [15]): 2.24 10^4L/mol
Activity (Homo sapiens [16]): Active
inhibition (Rattus norvegicus [17]): Active
deltaG (Homo sapiens [18]): -8.89 kcal/mol
Ka (Homo sapiens [19]): 1.36 10^4L/mol
KSV (Homo sapiens [20]): 2.59 10^4L/mol
Ka (Homo sapiens [21]): 1.56 10^4L/mol
IC50 ([1]; read-out: IC50): 0.57 µM
Ki [22]: 0.65 µM
Activity (Homo sapiens [23]): Active
Activity (Homo sapiens [24]): 29.6 nm
Activity (Homo sapiens [25]): inactive
inhibition (Homo sapiens [26]): Active
inhibition (Rattus norvegicus [27]): Active
deltaG (Homo sapiens [28]): -8.81 kcal/mol
Activity (Homo sapiens [29]): Active
Kq (Homo sapiens [30]): 2.59 10^12L/mol/s
Activity (Mus musculus [31]): Active

CCC(=O)c1ccc(OC(=O)CI)cc1O
IC50 [1]: Not Active

Cc1cc(C(=O)C(C)C)c(O)cc1OC(=O)c1ccc(Br)cc1
IC50 ([1]; read-out: IC50): 26 µM

Cc1cc(C(=O)C(C)C)c(O)c(Br)c1OC(=O)CCl
IC50 ([1]; read-out: IC50): 30.9 µM

CC(=O)Oc1ccc(C(=O)C(C)C)c(O)c1
IC50 [1]: Not Active

CCC(=O)Oc1cc(O)c(C(=O)C(C)C)cc1C
IC50 [1]: Not Active

CCCCCC(=O)c1ccc(OC(=O)CI)cc1O
IC50 ([1]; read-out: IC50): 8.97 µM

CCCCCC(=O)c1cc(C)c(O)cc1O
IC50 ([1]; read-out: IC50): 66.5 µM

CCCCC(=O)c1cc(C)c(O)cc1O
IC50 [1]: Not Active

Cc1cc(C(=O)C(C)C)c(O)c(Br)c1OC(=O)c1ccc([N+](=O)[O-])cc1
IC50 ([1]; read-out: IC50): 20.6 µM

Cc1ccc(C(=O)Oc2c(C)cc(C(=O)C(C)C)c(O)c2Br)cc1
IC50 ([1]; read-out: IC50): 25.2 µM

Cc1cc(C(=O)C(C)C)c(O)cc1OC(=O)c1ccccc1Cl
IC50 ([1]; read-out: IC50): 27.4 µM

CCCCCCCCCC(=O)Oc1cc(O)c(C(=O)C(C)C)cc1C
IC50 ([1]; read-out: IC50): 8.45 µM

CC(C)C(=O)c1ccc(OC(=O)C(C)(C)C)cc1O
IC50 ([1]; read-out: IC50): 33.4 µM

Cc1cc(C(=O)C(C)C)c(O)c(Br)c1OC(=O)c1ccc(Cl)cc1
IC50 ([1]; read-out: IC50): 24.9 µM

CC(C)C(=O)c1cc(Br)c(O)cc1O
IC50 ([1]; read-out: IC50): 29 µM

CCCCC(=O)Oc1cc(O)c(C(=O)C(C)C)cc1C
IC50 ([1]; read-out: IC50): 24.7 µM

O=c1c(-c2ccc(O)cc2)coc2cc(O)cc(O)c12 [GENISTEIN]
IC50 ([1]; read-out: IC50): 7.21 µM

Cc1cc(C(=O)C(C)C)c(O)cc1OC(=O)C(C)(C)C
IC50 ([1]; read-out: IC50): 16 µM

COc1ccc(C(=O)Oc2c(C)cc(C(=O)C(C)C)c(O)c2Br)cc1
IC50 ([1]; read-out: IC50): 27.6 µM

CC(C)C(=O)c1ccc(OC(=O)CCl)cc1O
IC50 [1]: Not Active

CC(C)C(=O)c1cc(Br)c(OC(=O)CCl)cc1O
IC50 ([1]; read-out: IC50): 143 µM

CCCCCCCC(=O)c1ccc(O)cc1O
IC50 ([1]; read-out: IC50): 74.6 µM

CC(C)C(=O)c1cc(Br)c(OC(=O)CBr)cc1O
IC50 ([1]; read-out: IC50): 15 µM

CCCCCCC(=O)c1cc(C)c(O)cc1O
IC50 ([1]; read-out: IC50): 40.9 µM
